Where “and” joins values, the source holds several entries; their conditions need not be identical. Equal values may be shown once. Marks after values point to notes of the source that are not given here.
Key:
male rats [1] = format: in vivo, rat; conditions: Day 45 and Day 65
Method: The latter was simulated by a single injection of cytostatic drug Paclitaxel (Mitotax, Dr. Reddy's, India) to male rats (3 months of age). The choice of the drug was due to the fact that it is one of the medications that damage the precursors of spermatogenesis—stem cells.
Paclitaxel was administered to the animals of the control and test groups once intravenously at the maximum tolerated dose of 7.6 mg/kg. Treamid was administered to the animals of the experimental groups intragastrically at a dose of 5 mg/kg in the form of a suspension in 2% starch mucus for 15 days a month after the administration of Paclitaxel. The control animals received an equivalent volume of the solvent (2% starch mucus), instead of the test compound. […]
On Day 1 (in 24 hours), as well as on Day 45 and Day 65 after the administration of Paclitaxel, the animals were euthanized, and the preparations of their testes were made. Further, the content of progenitor cells of spermatogenesis in the testes was determined by an in vitro cloning method. […] Then, the nonadherent fraction of cells was collected, and the number of cells (cells/ml) was counted in the Goriaev chamber. […] After the incubation, the number of colony-forming units, spermatogenic (CFU-Sp)—clusters of more than 30 cells of round shape and of various diameters—was counted. […]

male rats [2] = experiment: Benign prostatic hyperplasia (BPH) model induced with Sulpiride, prostate weight and morphometry; format: in vivo, rat
Method: This is manifested in a decrease in the severity of the morphological changes typical in these diseases. CAP was simulated by suturing the ventral lobe of the gland with a silk thread, and BPH was simulated by the administration of Sulpiride. The reference drug was Prostamol Uno.
Animals with BPH received Teramide intragastrically for 2 months at a dose of 0.5 mg/kg.
Experiments were performed on 40 male Wistar rats (3 months of age). To simulate chronic abacterial prostatitis, the ventral lobe of the prostate was sutured with a silk thread (under anesthesia). The model of benign prostatic hyperplasia (BPH) was simulated in rats by inducing hyperprolactinaemia, for which male rats were intraperitoneally injected with Sulpiride at a dose of 40 mg/kg every day for 2 months (Eglonil, Sanofi Winthrop Industry, France).
The ability of Treamid to normalize the structure of the prostate gland was studied in the presence of administration of Sulpiride. For this purpose, Treamid was administered intragastrically for 2 months at a dose of 0.5 mg/kg simultaneously with Sulpirid. The control animals received a solvent (2% starch mucus) in an equivalent volume. The animals of the comparison group were injected intragastrically with a solution of Prostamol Uno at a dose of 50 mg/kg. At the end of the administration course, the animals were weighed and euthanized in a CO2 chamber. Sulpiride is known to cause the development of BPH in the lateral lobe of the gland in rats [Van Coppenolle Fabien, Christian Slomianny, Francoise Carpentier Effects of hyperprolactinemia on rat prostate growth: evidence of androgeno—dependence.//Physiol. Endocrinol. Metab.—2001.—P. 120-129]. In this regard, this lobe was dissected. Its weight, weight coefficient, and volume were determined. Further, it was subjected to a morphological analysis. The lateral lobe of the prostate gland was fixed in 10% formalin and poured into paraffin, followed by preparation of sections of a thickness of 5 μm. Deparaffined sections of the gland were stained with hematoxylin and eosin. On the histological sections, the presence of proliferative centers and daughter acini were determined per standard section area. In addition, the area of the epithelial and stromal structures was measured on the standard area of a histological section. These parameters were determined by using a computer graphic analysis on the standard area of a histological section (micrographs of 10 serial visual fields performed by an AxioCam Erc5s camera mounted on an AxioLab A1 microscope (×10 lens, ×10 eyepiece), with an image transfer software of “AxioVision LE”, Carl Zeisis). The stromal-epithelial ratio was defined as a ratio of the area of stroma to the area of epithelium.
The effectiveness of the test compound was estimated by the following criteria: lower intensity of morphological symptoms of benign prostatic hyperplasia:—a decrease in the number of proliferation centers and daughter acini, and a decrease in the area of the epithelium.

[3] = Treamid 0.5 mg/kg 2 months, Prostamol Uno 50 mg/kg

O=C(CCCC(=O)NCCc1ncc[nH]1)NCCc1ncc[nH]1 [Treamid]
increase in the number of colony-forming cells compared with the cytostatic control (male rats [1]): 44-48%
Volume of the lateral lobe of the prostate gland, cm^3 (male rats [2]; [3]): 0.62 ± 0.14# cm^3
Weight coefficient of the lateral lobe of the prostate gland (male rats [2]; [3]): 0.69 ± 0.12 mg/g
Weight of the lateral lobe of the prostate gland (male rats [2]; [3]): 381.67 ± 70.30 mg
Relative area (%) of the acinar epithelium on the standard area of a section of the lateral lobe (male rats [2]; group M ± m): 13.89 ± 2.08 %
Relative area (%) of the stroma on the standard area of a section of the lateral lobe (male rats [2]; group M ± m): 45.66 ± 2.30 %
The number of daugter proliferative centers (abs.) (male rats [2]; group M ± m): 1.60 ± 0.60 abs.
The number of structures (abs.) consisting of 2-3 glandules tightly adjacent to each other (male rats [2]; group M ± m): 1.60 ± 0.81 abs.
Relative area (%) of the acinar epithelium on the standard area of a section of the lateral lobe (male rats [2]; individual animals): 10.26% and 14.09% and 16.30% and 20.19% and 8.61%
Relative area (%) of the stroma on the standard area of a section of the lateral lobe (male rats [2]; individual animals): 48.61% and 45.59% and 44.14% and 38.12% and 51.82%
The number of daugter proliferative centers (abs.) (male rats [2]; individual animals): 3 abs. (2×) and 1 abs. (2×) and 0 abs.
The number of structures (abs.) consisting of 2-3 glandules tightly adjacent to each other (male rats [2]; individual animals): 1 abs. and 3 abs. and 4 abs. and 0 abs. (2×)
